Reference: paper PMC8720286 (Chemical biology & drug design, 2020)
In brackets after ≈: the same amount, converted by molar mass.

Legend:
Assay in all cases: microbe, parasite or virus in culture
Mtb KZN494/MDR = type: cell-based, Mycobacterium tuberculosis; settings: Mycobacterium tuberculosis, KZN494/MDR, read-out: Mtb MIC KZN494/MDR
Mtb V2475/MDR = type: cell-based; settings: Mycobacterium tuberculosis, read-out: Mtb MIC V2475/MDR
Mtb R506/XDR = type: cell-based; settings: Mycobacterium tuberculosis, read-out: Mtb MIC R506/XDR
Mtb TF274/XDR = type: cell-based; settings: Mycobacterium tuberculosis, read-out: Mtb MIC TF274/XDR

| Compound | MIC (Mtb KZN494/MDR) | MIC (Mtb V2475/MDR) | MIC (Mtb R506/XDR) | MIC (Mtb TF274/XDR) |
| --- | --- | --- | --- | --- |
| Cc1ccc2nc(C)c(C(=O)NCCCC3CCCCC3)n2c1 [Compound 15, N-(3-cyclohexylpropyl)-2,6-dimethylimidazo[1,2-a]pyridine-3-carboxamide] | 0.05 µM (≈ 0.0157 µg/mL) | 0.2 µM (≈ 0.0627 µg/mL) | 0.1 µM (≈ 0.0313 µg/mL) | 0.2 µM (≈ 0.0627 µg/mL) |
| Cc1nc2ccc(Cl)cn2c1C(=O)NCCCC1CCCCC1 [Compound 16, 6-chloro-N-(3-cyclohexylpropyl)-2-methylimidazo[1,2-a]pyridine-3-carboxamide] | 0.09 µM (≈ 0.03 µg/mL) | 0.37 µM (≈ 0.124 µg/mL) | 0.75 µM (≈ 0.25 µg/mL) | 1.5 µM (≈ 0.501 µg/mL) |
